Measurements as given in US20090203605A1, “Methods For Treating A Condition Characterized By Dysfunction In Protein Homeostasis” (THE SCRIPPS RESEARCH INSTITUTE, priority 2008, published 2009).
Residues, ends and D or L forms follow the SMILES beside them. *: point of attachment. Cbz = O=C(OCc1ccccc1)*

Columns and labels:
[1] = system: L444P GC; format: cell-based, human; details: 0.8 μM; 24, 72 and 120 h
Method: The partial restoration of L444P GC proteostasis was further supported by analysis of the distinct glycosylation pattern associated with GC trafficking through the Golgi compartment. Ron et al., Hum Mol Genet. 14: 2387-2398, 2005; Zimmer et al., J Pathol 188: 407-414, 1999. Fibroblasts grown in the presence or absence of celastrol were lysed at the indicated times and the glycosylation of L444P GC was analyzed by Western blot after treatment with endoglycosidase H (endo H) (FIG. 1B). Digestion with PNGase F confirms that the high MW endo H resistant band was glycosylated (FIG. 8). A low molecular weight band corresponding to the endo H-sensitive, partially glycosylated GC that has not left the ER is typically detected after endo H treatment. Ron et al., Hum Mol Genet. […]
Western blot analyses. […] Total cell protein was determined with Micro BCA assay reagent (Pierce, Rockford, Ill.) and each sample was diluted to the same protein concentration. […] The western blot bands of the endoH treated samples were quantified by Java Image processing and analysis software from the NIH (http://rsb.info.nih.gov/ij/).
Western blot. […] Total cell protein was measured using the Micro BCA assay reagent. […]

[2] = system: spliced Xbp-1 mRNA (IRE1 arm of the UPR); assay: RT-PCR analysis of Xbp-1 splicing in L444P GC fibroblasts; format: cell-based, human; details: single exposure 0.8 μM; 2, 4, 6 and 24 h
Method: IRE1 responds to stress by oligomerization, resulting in trans-autophosphorylation that activates its endonuclease function, precisely splicing the mRNA that encodes the transcription factor XBP1. Ron et al., Nat Rev Mol Cell Biol 8: 519-529, 2007; Schroeder et al., Ann Rev Biochem 74: 739-789, 2005. RT-PCR was performed to detect the spliced mRNA of XBP1.
RT-PCR analysis of Xbp-1 splicing. cDNA was synthesized as in quantitative RT-PCR. Samples were heated for 5 min at 95° C., amplified in 30 cycles of 60 s at 95° C., 30 s at 58° C., and 30 s at 72° C., and 5 min at 72° C. PCR products were subjected to a 2.5% agarose gel. Unspliced Xbp-1 yielded a 289 bp amplicon, and spliced Xbp-1 yielded a 263 bp amplicon. The experiments were performed three times and similar results were obtained.

[3] = target: T1, L444P GC (Homo sapiens, UniProt P04062, L483P); assay: Lysed cell GC activity assay, lysed L444P fibroblasts incubated with compound; format: biochemical; details: 0.01 to 1000 μM
T1 construct: a L444P GC Gaucher fibroblast cell line (GM08760); host or cells: Gaucher patient-derived skin fibroblasts
T1 sequence (P04062 40-536 L483P): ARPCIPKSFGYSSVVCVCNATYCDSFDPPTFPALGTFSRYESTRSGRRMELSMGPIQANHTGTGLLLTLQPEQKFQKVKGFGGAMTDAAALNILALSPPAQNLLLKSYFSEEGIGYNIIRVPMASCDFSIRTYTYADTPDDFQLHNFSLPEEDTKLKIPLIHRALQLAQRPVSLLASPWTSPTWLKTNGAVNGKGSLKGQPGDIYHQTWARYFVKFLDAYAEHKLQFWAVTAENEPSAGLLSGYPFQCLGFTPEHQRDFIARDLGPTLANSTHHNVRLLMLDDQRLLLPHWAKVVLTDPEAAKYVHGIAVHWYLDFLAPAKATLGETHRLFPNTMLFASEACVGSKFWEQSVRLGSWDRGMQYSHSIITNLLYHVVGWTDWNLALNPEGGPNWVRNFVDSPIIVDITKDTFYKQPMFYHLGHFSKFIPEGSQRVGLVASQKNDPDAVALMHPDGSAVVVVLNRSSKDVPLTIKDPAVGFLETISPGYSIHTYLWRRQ

[4] = system: GC and chaperone mRNA expression levels; details: diltiazem 10 μM

Row | Structure (SMILES) | endo H-resistant (post-ER) GC glycoform band [1] | spliced Xbp-1 mRNA [2] | GC inhibition in lysed L444P fibroblasts [3] | mRNA expression level of Hsp40 ([4]; 7 days (FIG. 26)) | GC mRNA expression level vs untreated cells ([4]; 6 h to 5 d)
1 | CC(C)C[C@@H](C=O)NC(=O)[C@H](CC(C)C)NC(=O)[C@H](CC(C)C)NC(=O)OCc1ccccc1 [MG-132] (Cbz-Leu-Leu-Leu-aldehyde) | striking increase | no spliced Xbp-1 could be detected |  |  | 
2 | COc1ccc([C@@H]2Sc3ccccc3N(CCN(C)C)C(=O)[C@@H]2OC(C)=O)cc1.Cl [diltiazem, Diltiazem hydrochloride] |  |  | No significant GC inhibition | similarly increased | Strictly analogous results
